Results: PubChem BioAssay (NCI)
Values joined by “and” are separate entries in the source; they are usually repeats but may differ in a detail not shown here. Identical values can stand only once.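 Growth conditions: 96-well plates. Treatment: test compound, 48 hours, 5 concentrations. Analysis: linear interpolation between bracketing concentrations; unreached endpoints set to highest concentration. Here, GI50 denotes the concentration required for 50% inhibition of growth. At the TGI there is no net growth.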

Columns and labels:
Assay in all cases: NCI tumour cell line growth inhibition, 48 h
OVCAR-5 ovarian = test system: OVCAR-5 ovarian
HL-60(TB) leukemia = test system: HL-60(TB) leukemia
HOP-62 NSCLC = test system: HOP-62 NSCLC
UO-31 renal = test system: UO-31 renal
SW-620 colon = test system: SW-620 colon
A549 NSCLC = test system: A549 NSCLC
NCI-H23 lung = test system: NCI-H23 lung
SF-295 CNS = test system: SF-295 CNS
OVCAR-3 ovarian = test system: OVCAR-3 ovarian
COLO 205 colon = test system: COLO 205 colon

Structure (SMILES)	TGI (OVCAR-5 ovarian)	TGI (HL-60(TB) leukemia)	TGI (HOP-62 NSCLC)	TGI (UO-31 renal)	TGI (SW-620 colon)	TGI (A549 NSCLC)	TGI (NCI-H23 lung)	TGI (SF-295 CNS)	TGI (OVCAR-3 ovarian)	TGI (COLO 205 colon)	GI50 (OVCAR-5 ovarian)	GI50 (HL-60(TB) leukemia)	GI50 (HOP-62 NSCLC)	GI50 (UO-31 renal)	GI50 (A549 NSCLC)	GI50 (NCI-H23 lung)	GI50 (SF-295 CNS)	GI50 (OVCAR-3 ovarian)	GI50 (COLO 205 colon)	GI50 (SW-620 colon)
O=C(c1cc(Cl)cc(Cl)c1)N(Cc1cccnc1)C(=S)N(Cc1cccnc1)C(=O)c1cc(Cl)cc(Cl)c1	> 100 µM	90 µM	75.1 µM	56.2 µM	> 100 µM	> 100 µM	> 100 µM	> 100 µM	61.6 µM	38.5 µM										
CC[C@@]1(O)C(=O)OCc2c1cc1n(c2=O)Cc2cc3c(CN(C)C)c(O)ccc3nc2-1				0.273 µM and 1.89 µM and 0.607 µM					1.37 µM and 7.71 µM and 2.12 µM	4.85 µM [middle of 4 runs]	0.168 µM and 0.217 µM and 0.407 µM	0.0103 µM and 0.00542 µM	0.0102 µM and 0.00621 µM and 0.0163 µM	0.0169 µM and 0.118 µM and 0.0299 µM	0.0545 µM and 0.08 µM	0.0088 µM and 0.0362 µM	< 0.01 µM and 0.0104 µM and 0.0304 µM	0.107 µM and 0.124 µM and 0.551 µM	0.384 µM and 0.089 µM and 0.855 µM	
O=c1ccn(Cc2ccccc2CCl)c(=O)[nH]1	37.4 µM	> 100 µM	52.7 µM	77.3 µM	> 100 µM	> 100 µM	40.1 µM	64.1 µM	42 µM	94.3 µM										
O=c1ccc2c(Cl)cccc2o1	> 100 µM	> 100 µM	> 100 µM	> 100 µM	> 100 µM	> 100 µM	> 100 µM	> 100 µM	> 100 µM	> 100 µM										
O=c1oc2ccc3ccccc3c2cc1-c1nc(-c2ccc([N+](=O)[O-])cc2)n[nH]1	> 100 µM	> 100 µM	42 µM	> 100 µM	> 100 µM	> 100 µM	45.8 µM	> 100 µM	> 100 µM	> 100 µM										
O=C(CC(Cc1ccccc1)c1ccc(Oc2ccccc2)cc1)Nc1cccc(Cl)c1 (stereo unspecified)	> 100 µM	10.2 µM	> 100 µM	> 100 µM	> 100 µM	> 100 µM	> 100 µM	15.4 µM	49.6 µM	19.3 µM										
Fc1cc(C2=Nn3c(CNc4ccc(Cl)cc4)nnc3S/C2=C\c2ccc(-c3ccc(Cl)cc3)o2)c(Cl)cc1Cl	98.5 µM	> 100 µM	91.6 µM	> 100 µM	> 100 µM	> 100 µM	> 100 µM	52.4 µM	> 100 µM	88.6 µM										
CC(C)(C)CNCCCNc1ccc(Cl)cc1	> 100 µM	0.172 µM	> 100 µM	> 100 µM	> 100 µM	> 100 µM	> 100 µM	69.1 µM		45.3 µM										
OC(c1ccccc1)C1CC2C=CC1C2 (stereo unspecified)	> 100 µM	> 100 µM	> 100 µM	> 100 µM	> 100 µM	> 100 µM	> 100 µM	> 100 µM	> 100 µM	> 100 µM										
Clc1ccc(OCc2nnc3sc(SSc4nn5c(COc6ccc(Cl)cc6)nnc5s4)nn23)cc1	> 100 µM	> 100 µM	> 100 µM	> 100 µM	> 100 µM	> 100 µM	> 100 µM	> 100 µM	80.4 µM	> 100 µM								35.3 µM		
CSC1=C(SC)C(=O)c2cn(C)c(=O)cc2C1=O	35.2 µM		24.8 µM	3.13 µM	2.58 µM	36.9 µM	11.1 µM	26 µM	3.54 µM	2.89 µM										
C1=Nc2ccccc2Cn2nncc21	> 100 µM	> 100 µM	> 100 µM	> 100 µM	> 100 µM	> 100 µM	> 100 µM		> 100 µM	> 100 µM										
CC(C)=CC1C(COC(=O)c2ccccc2Cl)C1(C)C (stereo unspecified)	> 100 µM	67.7 µM	> 100 µM	> 100 µM	> 100 µM	> 100 µM	> 100 µM	> 100 µM	75.8 µM											
CC(C(=O)NCCNC(=O)CCCC(=O)N(C)O)C(=O)NCCNC(=O)CCCC(=O)N(C)O	> 100 µM	> 100 µM	> 100 µM	> 100 µM	> 100 µM	> 100 µM	> 100 µM	> 100 µM	> 100 µM	> 100 µM										
CC1=NN(c2cccc(Cl)c2)C2(C1=Cc1cccs1)C(Cl)C(=O)N2c1nc2ccccc2s1 (stereo unspecified)	41.9 µM	61 µM	> 100 µM	69.6 µM	> 100 µM	63.7 µM	47.2 µM	55.9 µM	52 µM											
COc1ccc(N2C(=O)C(=O)N(C)C2=O)c2ccccc12	> 10 µM	> 10 µM	> 10 µM	> 10 µM	> 10 µM	> 10 µM	> 10 µM	> 10 µM	> 10 µM	> 10 µM										
OCC(O)C(O)C(O)C(O)CNCCO/N=C1/C(c2c(O)[nH]c3ccccc23)=Nc2ccccc21 (stereo unspecified)	> 50 µM	37.9 µM	22.9 µM	> 50 µM	> 50 µM	> 50 µM	23.7 µM	> 50 µM	26.3 µM	40.6 µM										
O=S(=O)(Nc1nccs1)c1ccc([As](=O)(O)O)cc1	> 100 µM	> 100 µM	> 100 µM	> 100 µM	> 100 µM	> 100 µM	> 100 µM	> 100 µM	> 100 µM	> 100 µM										
O=[N+]([O-])c1ccc(Cc2nc3cc4ccccc4cc3[nH]2)cc1C(F)(F)F	27.5 µM	> 100 µM	27.3 µM	40.4 µM	62.2 µM	64.8 µM	25.7 µM	29 µM	26 µM	34.3 µM										
Fc1ccc(Nc2ncc(-c3cc(F)c(Cl)cc3Cl)s2)cc1Cl	30.5 µM	36.2 µM	21.8 µM	42.1 µM	24.9 µM	31.3 µM	28.1 µM	31 µM	23.9 µM	> 100 µM	15.8 µM	18.1 µM	9.43 µM	17.1 µM	14.9 µM	14.1 µM	15.9 µM	10.5 µM	28.5 µM	5.47 µM
CC(C)NC(=O)OCc1nnn2c1CCC2	> 100 µM	> 100 µM	> 100 µM	> 100 µM	> 100 µM	> 100 µM	> 100 µM	> 100 µM	> 100 µM											
O=[N+]([O-])c1ccc(NNN=Nc2ccc(-c3nc4ccccc4[nH]3)cc2)c([N+](=O)[O-])c1	> 100 µM	> 100 µM	> 100 µM	> 100 µM	> 100 µM	> 100 µM	> 100 µM	> 100 µM	> 100 µM	> 100 µM										
Clc1ccc(C2CC(c3cccc(Nc4ccncc4)c3)=NN2c2ccccc2)cc1 (stereo unspecified)	3.07 µM	3.87 µM	5.15 µM	2.79 µM	3.34 µM		3.7 µM	3.07 µM		4.5 µM	1.66 µM	1.71 µM	2.31 µM	1.47 µM		1.92 µM	1.66 µM		1.96 µM	1.67 µM
CC(C)C(=O)Nc1ccc(-c2nc(-c3cccc(OCCN4CCOCC4)c3)c(-c3ccnc(Br)c3)[nH]2)cc1	> 100 µM		14.5 µM	7.23 µM	8.59 µM	> 100 µM	18 µM	2.88 µM	> 100 µM	6.59 µM	6.42 µM		2.94 µM	2.36 µM	3.73 µM	3.12 µM	1.09 µM	4.24 µM	2.42 µM	2.87 µM
COc1ccc(/C=C2\C[C@H]3[C@@H]4CC=C5C[C@@H](OC(C)=O)CC[C@]5(C)[C@H]4CC[C@]3(C)C2=O)cc1OC	> 100 µM	78.9 µM	> 100 µM	35.9 µM	> 100 µM	> 100 µM	> 100 µM	> 100 µM	> 100 µM	> 100 µM										
N#CC(NNC(=O)c1c(Cl)c(Cl)c(Cl)c(Cl)c1-c1nc2ccc(C(=O)c3ccccc3)cc2[nH]1)c1ccccc1 (stereo unspecified)	> 100 µM	45.6 µM	63.7 µM	> 100 µM	> 100 µM	> 100 µM	90.3 µM	22.1 µM	57 µM	24.3 µM										
